Measured values reported in article PMC11758220, “Identification of a Privileged Scaffold for Inhibition of Sterol Transport Proteins through the Synthesis and Ring Distortion of Diverse, Pseudo-Natural Products” (ACS Central Science, 2025).

Assays:
OSBP = molecular target: T1, OSBP (Homo sapiens, UniProt P22059); experiment: Fluorescence polarisation (FP) competition with NBD-cholesterol, OSBP; format: binding; conditions: single dose; for OSBP (FP) inhibition: Dose = 10 µM
T1 construct: OSBP(377-807); host or cells: E. coli OverExpress C41
T1 sequence (P22059 377-807): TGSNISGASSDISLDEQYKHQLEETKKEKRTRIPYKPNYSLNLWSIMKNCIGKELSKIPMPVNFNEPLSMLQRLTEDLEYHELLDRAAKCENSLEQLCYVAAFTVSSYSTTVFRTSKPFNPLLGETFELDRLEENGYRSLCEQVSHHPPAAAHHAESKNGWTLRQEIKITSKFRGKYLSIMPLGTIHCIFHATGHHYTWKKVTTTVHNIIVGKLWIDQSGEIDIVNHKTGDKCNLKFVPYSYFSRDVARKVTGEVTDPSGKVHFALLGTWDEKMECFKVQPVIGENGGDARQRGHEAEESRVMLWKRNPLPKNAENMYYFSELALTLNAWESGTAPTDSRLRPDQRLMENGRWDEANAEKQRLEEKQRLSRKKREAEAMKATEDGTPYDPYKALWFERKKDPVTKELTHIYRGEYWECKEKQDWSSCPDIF
Description: (§1) Protein expression constructs
(§2) Human ASTER domains of Aster-A(359-547), -B(364-552) and -C(318-504) were subcloned into a pGEX-6p-2rbs vector, thus introducing the cloning artifact ‘GPLGS’.3 The pGEX-6P-1-GST-OSBP(377- […]
(§3) a gift from James H. Hurley (University of California).4 The pHIS_2His6_Thrombin_STARD4(2-205;C75S) plasmid was a gift from Young Jun Im (Chonnam National University).5 STARD5A was a gift from Nicola Burgess-Brown (Addgene plasmid #42392; http://n2t.net/addgene:42392; […]
(§4) Protein expression and purification […]
(§5) vectors including an N-terminal PreScission-cleavable glutathione S-transferase (GST)-tag were expressed in Escherichia coli (E. coli) OverExpress C41 in Terrific Broth (TB) medium for 16 h at 18 °C after the induction with 0.1 mM isopropyl β-D-1-thiogalactopyranoside (IPTG). Cells were harvested at 3500 × g for 15 minutes and lysed by sonication in buffer containing 50 mM HEPES pH 7.5, 300 mM NaCl, 10 %v/v glycerol, 5 mM dithiothreitol (DTT), 0.1 %v/v Triton X-100 and protease inhibitor mix HP plus (Serva). The lysate was purified by affinity chromatography on a GSTrap FF column (Cytiva) using an ÄKTA Start (Cytiva) in buffer containing 50 mM HEPES pH 7.5, 300 mM NaCl, 10 %v/v glycerol, 5 mM DTT and 0.01 %v/v Triton X-100. The GST-tag was cleaved overnight on the column at 4 °C. The Aster sterol binding domains were further purified by size-exclusion chromatography (SEC) on a HiLoad 16/600 Superdex 75 pg (Cytiva) in buffer containing 20 mM HEPES pH 7.5, 300 mM NaCl, 10 %v/v […]
(§6) STARD5(6-213) harboring an N-terminal His6-Tag were expressed in E. coli BL21(DE3) in Luria-Bertani Broth (LB) medium for approximately 16 h at 18 °C after induction with 0.15 mM IPTG. Cells were harvested at 3500 × g for 15 minutes and lysed by sonication in buffer containing 50 mM HEPES pH 7.5, 150 mM NaCl, 5 %v/v glycerol, 5 mM DTT, 0.1 %v/v Triton X -100 and ethylenediaminetetraacetic acid (EDTA)-free protease inhibitor cocktail (Sigma-Aldrich). The cleared lysate was purified by affinity chromatography on a Ni-NTA Superflow Cartridge (Qiagen) using an ÄKTA Start (Cytiva) in buffer containing 50 mM HEPES pH 7.5, 150 mM NaCl, 5 %v/v glycerol, 5 mM DTT. START domains were eluted by using elution buffer containing 50 mM HEPES pH 7.5, 150 mM NaCl, 5 %v/v glycerol, 5 mM DTT and 500 mM imidazole. Proteins were further purified by SEC on a HiLoad 16/600 Superdex 75 pg (Cytiva) in buffer containing 20 mM HEPES pH 7.5, 150 mM NaCl, 5 %v/v glycerol and 2 mM DTT.
(§7) The ORP domain of human OSBP(377-807) in the pGEX-6p-1 vector with an N-terminal PreScission-cleavable GST-tag was expressed in E. coli OverExpress C41 in LB medium for 16 h at 18 °C after induction with 0.1 mM IPTG. Cells were harvested at 3500 × g for 15 minutes and lysed by sonication in buffer containing 20 mM HEPES pH 7.5, 300 mM NaCl, 10 %v/v glycerol, 5 mM DTT, 0.1 %v/v Triton X-100 and EDTA-free protease inhibitor cocktail (Sigma-Aldrich). The cleared lysate was purified by affinity chromatography on a GSTrap HF column (Cytiva) using an ÄKTA Start (Cytiva) in buffer containing 20 mM HEPES pH 7.5, 300 mM NaCl, 10 %v/v glycerol, 5 mM DTT. OSBP(377 -807) was eluted by using elution buffer containing 20 mM HEPES pH 7.5, 300 mM NaCl, 10 %v/v glycerol, 5 mM DTT and 10 mM reduced glutathione. Proteins were further purified by SEC on a HiLoad 16/600 Superdex 75 pg (Cytiva) using an ÄKTA Explorer (Cytiva) in buffer containing 20 mM HEPES pH 7.5, 150 mM NaCl, 10 %v/v glycerol and 2 mM DTT.
(§8) The ORP domains of human ORP1(534-950) in pET24b(+) and ORP2(49-480) in the pET24b(+) vector including an N-terminal His6-Tag were expressed in E. coli BL21(DE3) in TB medium for approximately 16 h at 18 °C after induction with 0.1 mM IPTG. Cells were collected at 3500 × g for 15 minutes and lysed by sonification in buffer containing 10 mM Tris-HCl pH 8, 300 mM NaCl, 5 % glycerol, 2 mM DTT, 0.1 % Triton X-100 and EDTA-free protease inhibitor cocktail (Sigma-Aldrich). The cleared […]

Aster-C = molecular target: T2, Aster-C (Homo sapiens, UniProt Q8IYS0); experiment: Fluorescence polarisation (FP) competition with NBD-cholesterol, Aster-C; format: binding; conditions: for IC50: mean of three experiments run in technical duplicates; for inhibition at 10 µM / Aster-C (FP) inhibition: single dose, Dose = 10 µM
T2 construct: -C(318-504); GST (PreScission-cleavable) (N, cleaved yes); made in house; host or cells: E. coli OverExpress C41
T2 sequence (Q8IYS0 318-504): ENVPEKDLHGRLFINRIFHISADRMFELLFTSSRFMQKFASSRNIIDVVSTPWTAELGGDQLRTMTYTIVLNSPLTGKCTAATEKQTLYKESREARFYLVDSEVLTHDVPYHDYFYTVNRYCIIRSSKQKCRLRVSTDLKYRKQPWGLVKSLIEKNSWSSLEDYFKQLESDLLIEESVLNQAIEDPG
Description: as §1, §2, §3, §4, §5, §6, §7, §8

SMILES | inhibition at 10 µM (OSBP) | IC50 (Aster-C) | inhibition at 10 µM (Aster-C) | Aster-C (FP) inhibition (Aster-C) | OSBP (FP) inhibition (OSBP)
CC(C)(C)OC(=O)N1CCN(c2ccc3c(c2)C24CCC5CC(CCC52C)OC4=N3)CC1 (centres unmarked) [Compound 19e] | 17.2% | > 80 µM | 1.6% |  | 
CC12CCC(O)CC1CCc1c2[nH]c2ccc(C(F)(F)F)cc12 (centres unmarked) [Compound 10g] | -8% |  | -5% |  | 
CC12CCC3CC1CCC21C(=Nc2ccc(Br)cc21)O3 (single isomer, unassigned; (+)) [(+)-15b] | 13.1% | > 80 µM | 0% |  | 
Cc1cc2nc3c(nc2cc1C)[C@@]1(C)CC[C@@H](O)C[C@H]1CC3 [Compound 7b] | 24% |  | 0.8% |  | 
Cc1ccc2[nH]c3c(c(=O)c2c1)C[C@@H]1C[C@H](O)CC[C@]31C [Compound 12] | 2% |  | 0% |  | 
COc1ccc(-c2nc3c(s2)CC[C@@H]2C[C@H](O)CC[C@]32C)cc1 [Compound 8d] | 2.6% |  | 0.8% |  | 
Cc1c2c(nc3ccccc13)[C@@]1(C)CC[C@@H](O)C[C@H]1CC2 [Compound 2a] | 10% |  | -2.4% |  | 
Cc1ccc2c(c1)C(=O)CC[C@@H]1C[C@H](O)CC[C@]1(C)C(=O)N2 [Compound 11c] | 18.7% |  | -5.6% |  | 
CC12CCC3CC1CCC21C(=Nc2ccc(N4CCOCC4)cc21)O3 (single isomer, unassigned; (+)) [(+)-19a] | 3.4% | > 80 µM |  | -0.8% | 
C[C@]12CC[C@@H](O)C[C@H]1CCC(=O)c1cc(Cl)cc(F)c1NC2=O [Compound 11f] |  |  |  | -0.8% | 9.0%
C[C@]12CC[C@@H](O)C[C@H]1CCc1sc(-c3ccc(F)cc3)nc12 [Compound 8e] |  |  |  | -2.4% | 1.3%
C[C@]12CC[C@@H]3C[C@H]1CC[C@@]21C(=Nc2ccc(N4CCN(Cc5ccncc5)CC4)cc21)O3 [Compound 24] | 11% | > 80 µM | 0% |  | 
Cc1ccc2c(c1)[C@@]13CC[C@@H]4C[C@@H](CC[C@@]41C)OC3=N2 [Compound 15e] | 5% | > 80 µM | 7% |  | 
C[C@]12CC[C@@H](O)C[C@H]1CCC(=O)c1cc(C(F)(F)F)ccc1NC2=O [Compound 11e] | 15% |  | -1.6% |  | 
Cc1ccc2[nH]c3c(c2c1)CC[C@@H]1C[C@H](O)CC[C@]31C [Compound 10e] | -1.3% |  | 1.6% |  | 
C[C@]12CC[C@@H](O)C[C@H]1CCC(=O)c1ccccc1NC2=O [Compound 11a] |  |  |  | -3.2% | 2.7%
CCCCCN(c1ccc2c(c1)[C@@]13CC[C@@H]4C[C@@H](CC[C@@]41C)OC3=N2)c1ccc2c(c1)[C@@]13CC[C@@H]4C[C@@H](CC[C@@]41C)OC3=N2 [Compound 20b] |  |  |  | -3.2% | 34.5%
COc1ccc2c(c1)C(=O)CC[C@@H]1C[C@H](O)CC[C@]1(C)C(=O)N2 [Compound 11d] | -5.3% |  | 1.6% |  | 
C[C@]12CC[C@@H](O)C[C@H]1CCC[C@]21NC(=O)c2ccccc2N1 [Compound 5a] | 9.1% |  | 0% | -4% | 15.5%
CCOC(=O)c1ccc2[nH]c3c(c2c1)CC[C@@H]1C[C@H](O)CC[C@]31C [Compound 10k] |  |  |  | -6% | 2.0%
C[C@]12CC[C@@H]3C[C@H]1CC[C@@]21C(=Nc2ccc(F)cc21)O3 [Compound 15d] | 2.5% | > 80 µM | -4% |  | 
COc1ccc2[nH]c3c(c2c1)CC[C@@H]1C[C@H](O)CC[C@]31C [Compound 10f] | -6.7% |  | 0% |  | 
COc1ccc2c(c1)[C@]1(O)CC[C@@H]3C[C@H](O)CC[C@]3(C)C1=N2 [Compound 14b] | 9.3% |  | 3.2% |  | 
C[C@]12CC[C@@H]3C[C@H]1CC[C@@]21C(=Nc2ccc(Br)cc21)O3 (racemic) [Compound 15b] | 7% | > 80 µM | -1.6% |  | 
Cc1c2c(nc3cc(Br)ccc13)[C@@]1(C)CC[C@@H](O)C[C@H]1CC2 [Compound 2c] |  |  |  | -1.6% | -4.0%
C[C@]12CC[C@@H](O)C[C@H]1CCc1c2[nH]c2ccc(F)cc12 [Compound 10d] |  |  |  | -3.2% | -7.0%
C[C@]12CC[C@@H](O)C[C@H]1CCc1c2[nH]c2ccc(I)cc12 [Compound 10h] |  |  |  | 24% | 18.7%
Cc1cc(C)c2c3c([nH]c2c1)[C@@]1(C)CC[C@@H](O)C[C@H]1CC3 [Compound 10j] | -16% |  | 0.8% |  | 
